“Also recorded” adds a separate entry of the source. Read-outs that look alike come from different tables or passages of the source.

One data set concerns the target T1, Aβ40-Zn^2+ aggregates (Homo sapiens, UniProt P05067).
T1 construct: purchased GL-Biochem (Shanghai)
As to the kind of experiment: TEM, size reduction of Aβ40-Zn^2+ aggregates. The settings on record: 6 eq, 7 h; aggregates 100 nm to 2.5 μm before. The protocol:
(§1) TEM sample was prepared from 200 μM Aβ-M^2+ 1:1 solution (pH 7.4 or 6.6 for Aβ40-Zn^2+ or Aβ40-Cu^2+, respectively) incubated in a rotary shaker for 9 days at RT. A cloudy mixture with massive sediments was obtained. TEM samples were prepared by diluting the stock solutions with PBS to a concentration of 25 μM with or without APCPP-γ-S. In this way four samples were obtained: (i) 25 μM Aβ40-Cu^2+; (ii) 25 μM Aβ40-Cu^2+ containing 150 μM APCPP-γ-S; (iii) 25 μM Aβ40-Zn^2+; and (iv) 25 μM Aβ40-Zn^2+ containing 150 μm APCPP-γ-S. The mixtures were incubated in a rotary shaker for 7 h and after vortexing, a sample was transferred to a gold grid, for Aβ40-Cu^2+, or a copper grid for Aβ40-Zn^2+. The wet grid was left to dry at RT overnight.
(§2) To validate the DLS data indicating the efficiency of APCPP-γ-S, we monitored the dissolution of Aβ40-M^2+ aggregates in the presence of APCPP-γ-S by TEM. Aβ40-Cu^2+ and Aβ40-Zn^2+ 1:1 complexes were incubated for 9 days at RT, resulting in a significant sediment. Aβ40-Cu^2+ aggregates of 2.5 μm in diameter (FIG. 6A) and Aβ40-Zn^2+ aggregates of different sizes from 100 nm to 2.5 μm (FIG. 6C) were observed by TEM measurements. APCPP-γ-S (6 eq) was then added and the mixture was incubated for 7 h.

Data set [1] in a line: Metabolic stability in mouse brain, liver and blood homogenates (HPLC). In kind it is in vitro ADME, mice. The settings on record: 37° C., up to 180 min. The protocol:
In order to use APCPP-γ-S as a neuroprotectant agent and test its activity in an animal model, we first evaluated the metabolic stability of APCPP-γ-S in several tissues such as liver, brain and blood. In this assay we took samples from mice brain, liver and blood. The tissue samples were homogenated by sonication and split to 0.5 ml aliquots. Each sample was mixed with 0.1 mg of APCPP-γ-S and incubated at 37° C. for 10, 30, 90 and 180 min. After incubation, the samples were collected and extracted with chloroform at 1:1 v/v ratio. The aqueous layer was removed and freeze-dried. Samples were loaded onto an activated Starta X-AW weak anion exchange cartridge, washed with H2O (1 ml) and eluted with MeOH:H2O (1:1, 1 ml) followed by NH4OH:MeOH:H2O (2:25:73, 1 ml), and then freeze-dried. The resulting residue was analyzed by HPLC. […] Each analysis cycle was set to 30 minutes. The chromatographic flow was monitored at 260 nm and integrated using EZChrom Elite Software.

The next data set deals with primary neurons. The data set is described as follows: Protection of primary neuron culture against Aβ42 insult (trypan blue count). In kind it is cell-based. The settings on record: Primary neuron. The protocol: Primary neuron cells were cultured in 96 wells plate (95×10^4 per well). After 24 h the cells were treated with 50 μM Aβ42 and various concentrations of APCPP-γ-S (0.04-25 μM) for 48 h. Cell viability was measured by dyeing the cells with trypan blue and counts of the vital cells. The results shown are the mean±S.D of three independent experiments in triplicate (*P<0.05, vs. Aβ42 treatment).
Primary neurons cells were cultured in 96 wells plate (95×10^4 per well). […] Cell viability was measured by dyeing the cells with trypan blue and counts the vital cells. The results shown are the mean±S.D of three independent experiments in triplicate (*P<0.05, **P<0.01 vs. Aβ42 treatment).
In this study, the neuroprotective activity of APCPP-γ-S in neuronal cells exposed to toxic Aβ42 was evaluated. At first we measured the number of the viable neuronal cells after treatment with Aβ42 (5-50 μM) (FIG. 11). At 50 μM Aβ42, 50% of the neuronal culture remained vital. Next, we measured the protective effect of APCPP-γ-S: primary neurons were treated with APCPP-γ-S (0.04-25 μM) and 50 μM Aβ42 for 48 h.

A short description of data set [2]: Pharmacokinetics and BBB permeation after IV injection in mice. In kind it is in vivo, F1 (C57B×S29) mice. The procedure:
As shown in Example 14, APCPP-γ-S is stable in human blood serum as well as in brain, liver and blood from mice. In this study, we evaluated APCPP-γ-S blood-brain barrier (BBB) permeability and pharmacokinetics in F1 (C57B×S29) mice. APCPP-γ-S was injected intravenously (IV) at 40 mg/Kg into four mice (each mouse was injected with 1.5 mg of APCPP-γ-S). The mice were sacrificed after 30 minutes (2 of the 4) or 90 minutes (thr other 2 of the 4), and samples from brain and blood were taken to analysis. Each sample was collected into 0.5 ml saline, sonicated and extracted with chloroform, applied onto an anion exchange cartridge, and freeze-dried. The resulting residue was analyzed by HPLC. We detected the presence of 67.5 and 64% of the injected amount of APCPP-γ-S in the blood samples after 30 and 90 minutes, respectively. In the brain sample we obtained ca. 2% permeability (data not shown).

In another data set the target is T2, Aβ40-Cu^2+ aggregates (Homo sapiens, UniProt P05067).
T2 construct: purchased GL-Biochem (Shanghai)
The data set is described as follows: TEM, size reduction of Aβ40-Cu^2+ aggregates. Conditions: 6 eq, 7 h; aggregates 2.5 μm before. The protocol: as §1, §2

For another data set, the system named is matrix vesicles (MVs). As to the kind of experiment: CPPD formation in MVs by FTIR analysis. Details: species or system human. The settings on record: MV+ATP+analogue.
The next data set concerns chondrocytes. The data set is described as follows: Pyrophosphate formed by ATP hydrolysis in the presence of chondrocytes (fluorogenic sensor). The class given is cell-based, human. The settings on record: 8 h, ATP alone 0.46 μM, without chondrocytes 0.26 μM.
The next data set concerns human chondrocyte cells. As to the kind of experiment: Hydrolysis of extracellular ATP in the presence of human chondrocyte culture. In kind it is cell-based. The settings on record: 100 μM each, 8 h, ATP alone 56%, without cells 18%. The procedure: In this study, the metabolic hydrolysis of ATP was evaluated. […] Following incubation, the samples were collected and heated at 80° C. for 15 min and extracted with chloroform, applied onto an anion exchange cartridge, and freeze-dried. The resulting residue was analyzed by HPLC.

Data set [3] in a line: IV administration to mice, detection in blood by HPLC. In kind it is in vivo.
Data set [4] in a line: Affinity to Zn^2+ ions (log K). In kind it is physicochemical.
A further data set concerns the target T3, Aβ28-Cu^+ complex (Homo sapiens, UniProt P05067).
T3 construct: we first studied Aβ28, as a more soluble fragment of Aβ40; purchased Sigma-Aldrich
The data set is described as follows: Titration of Aβ28-Cu^+ complex by chelators monitored by 1H-NMR. Conditions: 0.8 mM Aβ28-Cu^+, pD 7.

T1 sequence (P05067 672-711 limits assumed): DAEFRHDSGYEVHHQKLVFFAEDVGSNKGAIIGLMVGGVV
T2 sequence (P05067 672-711): as the sequence (P05067 672-711 limits assumed) above
T3 sequence (P05067 672-699 limits assumed, one chain of several): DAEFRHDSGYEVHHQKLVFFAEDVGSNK

As to `Nc1ncnc2c1ncn2[C@@H]1O[C@H](COP(=O)(O)CP(=O)(O)OP(O)(O)=S)[C@@H](O)[C@H]1O` [APCPP-γ-S, adenosine 5′-[Pγ-thio]-α,β-methylenetriphosphate], the “aggregate size after addition” value on Aβ40-Zn^2+ aggregates is listed as “less than 500 nm”; at Aβ40-Cu^2+ aggregates, “less than 250 nm”. Besides, the “metabolic stability in brain, liver and blood” value in data set [1] was “no significant degradation after 3 h; also recorded: could be detected even after 180 min”. In addition, the IC50 turned out to be 200 nM with primary neurons (48 h, read-out: concentration that maintained 50% of neuronal cells) and 200 nM in the data set on primary neurons (read-out: IC50 protection from Aβ42 insult). Besides, the “injected amount present in blood” value was 67.5% in [2] (IV 40 mg/Kg, after 30 minutes) and 64% in data set [2] (IV, after 90 minutes). Further, in [2] (IV 40 mg/Kg, brain sample), the permeability into brain result is given as “ca. 2%”.

As to `Nc1ncnc2c1ncn2[C@@H]1O[C@H](COP(O)(=S)OP(=O)(O)C(Cl)(Cl)P(=O)(O)O)[C@@H](O)[C@H]1O` (single isomer, unassigned; isomer a) [APPCCl2P-α-S (isomer A), adenosine 5′-[Pα-thio]-β,γ-(dichloromethylene)triphosphate], the “CPPD production in MVs (FTIR bands 920 and 1125 cm^−1)” value in the data set with matrix vesicles (MVs) is “a decrease in production of CPPD”. For the same compound, in the data set on chondrocytes, the “PPi formed on co-application with ATP” value was 0.029 µM. The “degradation of ATP on co-application” value in the data set with human chondrocyte cells came to 22%.

With `Nc1ncnc2c1ncn2[C@@H]1O[C@H](COP(O)(=S)OP(=O)(O)C(Cl)(Cl)P(=O)(O)O)[C@@H](O)[C@H]1O` (single isomer, unassigned) [APPCCl2P-α-S, adenosine 5′-[Pα-thio]-β,γ-(dichloromethylene)triphosphate], the “detection in blood after IV administration” value in data set [3] is reported as “could be detected in blood (by HPLC) even after 3 h”. In addition, in data set [4], the “log K (Zn^2+)” value stood at 6.5 and the “times higher affinity to Zn^2+ ions as compared to ATP” value is recorded as 50.

Regarding `Nc1ncnc2c1ncn2[C@@H]1O[C@H](COP(=O)(O)OP(O)(O)=S)[C@@H](O)[C@H]1O` [ADP-β-S, adenosine 5′-[β-thio]diphosphate, reference compound], the “equivalents at which the spectrum resembled that of pure Aβ28” value at Aβ28-Cu^+ complex amounted to 5 eq.

Values taken from patent US20140378408A1, “NUCLEOSIDE 5'-PHOSPHOROTHIOATE ANALOGUES AND USES THEREOF” (BAR-ILAN UNIVERSITY, an Israeli University, priority 2012, published 2014).
